Assay results published in ChEMBL document CHEMBL2375280, “Synthesis of novel 1,3,4-trisubstituted pyrazoles as anti-inflammatory and analgesic agents” (Eur J Med Chem, 2013).

Tests used:
[1] = test system: Rattus norvegicus; assay: Antiinflammatory activity in Wistar albino rat assessed as inhibition of carrageenan-induced paw edema at 0.32 mmol/kg, ip administered 1 hr prior to carrageenan challenge measured at 2 hrs by plethysmometric analysis relative to control; type: functional
[2] = test system: Rattus norvegicus; assay: Ulcerogenic effect in albino rat stomach assessed as ulcer index at 0.32 mmol/kg, po administered for 3 days measured 2 hrs post last dose; type: toxicity, organism-based; settings: in vivo
[3] = test system: Mus musculus; assay: Analgesic activity in albino mouse assessed as protection against p-benzoquinone-induced writhing at 0.32 mmol/kg, ip administered 1 hr prior to p-benzoquinone challenge measured for 30 mins relative to control; type: functional
[4] = test system: Rattus norvegicus; assay: Antiinflammatory activity in Wistar albino rat assessed as inhibition of carrageenan-induced paw edema at 0.32 mmol/kg, ip administered 1 hr prior to carrageenan challenge measured at 3 hrs by plethysmometric analysis relative to control; type: functional
[5] = organism: Homo sapiens; assay: Selectivity ratio for COX1 (unknown origin) over COX2 (unknown origin)
[6] = Acute toxicity in ip dosed mouse assessed as mortality measured for 24 hrs; type: organism-based; settings: in vivo
[7] = test system: Rattus norvegicus; assay: Antiinflammatory activity in Wistar albino rat assessed as inhibition of carrageenan-induced paw edema at 0.08 mmol/kg, ip administered 1 hr prior to carrageenan challenge measured at 3 hrs by plethysmometric analysis relative to control; type: functional
[8] = test system: Rattus norvegicus; assay: Antiinflammatory activity in ip dosed Wistar albino rat assessed as inhibition of carrageenan-induced paw edema administered 1 hr prior to carrageenan challenge measured at 3 hrs by plethysmometric analysis; type: functional, organism-based
[9] = test system: Rattus norvegicus; assay: Antiinflammatory activity in Wistar albino rat assessed as inhibition of carrageenan-induced paw edema at 0.16 mmol/kg, ip administered 1 hr prior to carrageenan challenge measured at 3 hrs by plethysmometric analysis relative to control; type: functional

In the case of Cc1ccc(-c2nn(-c3ccc(S(N)(=O)=O)cc3)cc2C=O)cc1, the inhibition in vivo at 320 µmol/kg [1] was 58.4%, the UI [2] was 9.6 and the Activity [3] was 16.67%. The inhibition in vivo at 320 µmol/kg [4] was 68.2%.

For COc1ccc(-c2nn(-c3ccc(S(N)(=O)=O)cc3)cc2C=O)cc1, the inhibition in vivo at 320 µmol/kg [1] was 83%, the UI [2] was 11.2 and the Activity [3] was 16.67%. The inhibition in vivo at 320 µmol/kg [4] was 81.5%.

Compound COc1ccc(-c2nn(-c3ccc(S(N)(=O)=O)cc3)cc2C(CC(=O)c2ccc(Cl)cc2)C(=O)c2ccc(F)cc2)cc1 (centres undefined) has an inhibition in vivo at 320 µmol/kg [1] of 72.2%, an Activity [3] of 33.33% and an inhibition in vivo at 320 µmol/kg [4] of 68.1%.

Work on COc1ccc(-c2nn(-c3ccc(Cl)cc3)cc2/C=C\C(=O)c2ccc(Cl)cc2)cc1 yielded an inhibition in vivo at 320 µmol/kg [1] of 53.7% and an inhibition in vivo at 320 µmol/kg [4] of 66.4%.

Work on COc1ccc(-c2nn(-c3ccc(Cl)cc3)cc2/C=N\c2ccc(Cl)cc2)cc1 yielded a Selectivity ratio [5] of 0.95, an inhibition in vivo at 320 µmol/kg [1] of 69.6% and a UI [2] of 5.4. For the same compound, the Activity [3] was 33.33% and the inhibition in vivo at 320 µmol/kg [4] was 72.6%.

With COc1ccc(C(=O)C(CC(=O)c2ccc(Cl)cc2)c2cn(-c3ccc(Cl)cc3)nc2-c2ccc(C)cc2)cc1 (centres undefined) the inhibition in vivo at 320 µmol/kg [1] was 16.1% and the inhibition in vivo at 320 µmol/kg [4] was 23.9%.

COc1ccc(-c2nn(-c3ccc(Cl)cc3)cc2C(CC(=O)c2ccc(Cl)cc2)C(=O)c2ccc(F)cc2)cc1 (centres undefined) showed an inhibition in vivo at 320 µmol/kg [1] of 19.8% and an inhibition in vivo at 320 µmol/kg [4] of 37.8%.

In the case of Cc1ccc(-c2nn(-c3ccc(Cl)cc3)cc2/C=N\c2ccccc2)cc1, the inhibition in vivo at 320 µmol/kg [1] was 40.1% and the inhibition in vivo at 320 µmol/kg [4] was 49.3%.

With COc1ccc(-c2nn(-c3ccc(S(N)(=O)=O)cc3)cc2/C=N\c2ccc(Cl)cc2)cc1 the inhibition in vivo at 320 µmol/kg [1] was 63%, the LD50 at 24 h [6] was 2440 µmol/kg and the Activity [3] was 50%. It also gave an inhibition in vivo at 320 µmol/kg [4] of 62.8%.

Work on COc1ccc(-c2nn(-c3ccc(Cl)cc3)cc2-c2cc(-c3ccc(Cl)cc3)[nH]c2-c2ccc(OC)cc2)cc1 yielded an inhibition in vivo at 320 µmol/kg [1] of 10.5% and an inhibition in vivo at 320 µmol/kg [4] of 20.7%.

With COc1ccc(-c2nn(-c3ccc(Cl)cc3)cc2/C=N\c2ccccc2)cc1 the inhibition in vivo at 320 µmol/kg [1] was 57.2%, the Activity [3] was 16.67% and the inhibition in vivo at 320 µmol/kg [4] was 72.6%.

With COc1ccc(C(=O)C(CC(=O)c2ccc(Cl)cc2)c2cn(-c3ccc(Cl)cc3)nc2-c2ccc(OC)cc2)cc1 (centres undefined) the inhibition in vivo at 320 µmol/kg [1] was 0% and the inhibition in vivo at 320 µmol/kg [4] was 9.61%.

COc1ccc(-c2nn(-c3ccc(S(N)(=O)=O)cc3)cc2/C=N\c2ccccc2)cc1 showed an inhibition in vivo at 320 µmol/kg [1] of 38.5% and an inhibition in vivo at 320 µmol/kg [4] of 55.4%.

With Cc1ccc(-c2nn(-c3ccc(S(N)(=O)=O)cc3)cc2/C=N\c2ccccc2)cc1 the inhibition in vivo at 320 µmol/kg [1] was 58.1% and the inhibition in vivo at 320 µmol/kg [4] was 57.1%.

For COc1ccc(/N=C\c2cn(-c3ccc(S(N)(=O)=O)cc3)nc2-c2ccc(C)cc2)cc1, the inhibition in vivo at 320 µmol/kg [1] was 48.8% and the inhibition in vivo at 320 µmol/kg [4] was 56.2%.

Work on COc1ccc2c(c1)c(CC(=O)O)c(C)n2C(=O)c1ccc(Cl)cc1 yielded a Selectivity ratio [5] of 3.94.

Compound CCCCC1C(=O)N(c2ccccc2)N(c2ccccc2)C1=O [PHENYLBUTAZONE] has an inhibition in vivo at 80 µmol/kg [7] of 20%, an inhibition in vivo at 320 µmol/kg [1] of 57.3% and an IC50 [8] of 0.22 mmol/kg. For the same compound, the UI [2] was 30.2, the Activity [3] was 33.33% and the inhibition in vivo at 320 µmol/kg [4] was 70.5%. It also gave an inhibition in vivo at 160 µmol/kg [9] of 42.1%.

In the case of COc1ccc(-c2nn(-c3ccc(S(N)(=O)=O)cc3)cc2/C=C\C(=O)c2ccc(Cl)cc2)cc1, the inhibition in vivo at 320 µmol/kg [1] was 55.6% and the inhibition in vivo at 320 µmol/kg [4] was 56%.

Compound COc1ccc(-c2nn(-c3ccc(Cl)cc3)cc2-c2cc(-c3ccc(Cl)cc3)[nH]c2-c2ccc(F)cc2)cc1 has an inhibition in vivo at 320 µmol/kg [1] of 53.7%, a UI [2] of 12 and an Activity [3] of 33.33%. It also gave an inhibition in vivo at 320 µmol/kg [4] of 61.9%.

With COc1ccc(/N=C\c2cn(-c3ccc(Cl)cc3)nc2-c2ccc(OC)cc2)cc1 the inhibition in vivo at 80 µmol/kg [7] was 37.5%, the Selectivity ratio [5] was 1.17 and the inhibition in vivo at 320 µmol/kg [1] was 69.2%. It also gave an IC50 [8] of 0.2 mmol/kg, an LD50 at 24 h [6] of 3250 µmol/kg and a UI [2] of 14.32. It also gave an Activity [3] of 66.67%, an inhibition in vivo at 320 µmol/kg [4] of 82.2% and an inhibition in vivo at 160 µmol/kg [9] of 43%.

For COc1ccc(-c2nn(-c3ccc(S(N)(=O)=O)cc3)cc2-c2cc(-c3ccc(Cl)cc3)[nH]c2-c2ccc(F)cc2)cc1, the inhibition in vivo at 320 µmol/kg [1] was 55.7% and the inhibition in vivo at 320 µmol/kg [4] was 55.9%.

Compound Cc1ccc(-c2nn(-c3ccc(Cl)cc3)cc2/C=C\C(=O)c2ccc(Cl)cc2)cc1 has an inhibition in vivo at 320 µmol/kg [1] of 49.2% and an inhibition in vivo at 320 µmol/kg [4] of 61.4%.

With COc1ccc(-c2nn(-c3ccc(S(N)(=O)=O)cc3)cc2-c2cc(-c3ccc(Cl)cc3)[nH]c2-c2ccc(OC)cc2)cc1 the inhibition in vivo at 320 µmol/kg [1] was 48.1% and the inhibition in vivo at 320 µmol/kg [4] was 28.6%.

Cc1ccc(-c2nn(-c3ccc(Cl)cc3)cc2/C=N\c2ccc(Cl)cc2)cc1 gave an inhibition in vivo at 320 µmol/kg [1] of 48.3% and an inhibition in vivo at 320 µmol/kg [4] of 49.2%.

In the case of COc1ccc(-c2[nH]c(-c3ccc(Cl)cc3)cc2-c2cn(-c3ccc(Cl)cc3)nc2-c2ccc(C)cc2)cc1, the inhibition in vivo at 320 µmol/kg [1] was 9.38% and the inhibition in vivo at 320 µmol/kg [4] was 21.3%.

For Cc1ccc(-c2nn(-c3ccc(Cl)cc3)cc2C(CC(=O)c2ccc(Cl)cc2)C(=O)c2ccc(F)cc2)cc1 (centres undefined), the inhibition in vivo at 320 µmol/kg [1] was 25.9% and the inhibition in vivo at 320 µmol/kg [4] was 19.4%.

Compound Cc1ccc(-c2nn(-c3ccc(S(N)(=O)=O)cc3)cc2/C=N\c2ccc(Cl)cc2)cc1 has an inhibition in vivo at 320 µmol/kg [1] of 69.1%, a UI [2] of 5.8 and an Activity [3] of 33.33%. For the same compound, the inhibition in vivo at 320 µmol/kg [4] was 78.4%.

In the case of Cc1ccc(-c2nn(-c3ccc(S(N)(=O)=O)cc3)cc2C(CC(=O)c2ccc(Cl)cc2)C(=O)c2ccc(F)cc2)cc1 (centres undefined), the inhibition in vivo at 320 µmol/kg [1] was 53.5%, the Activity [3] was 50% and the inhibition in vivo at 320 µmol/kg [4] was 56.2%.

Compound COc1ccc(C(=O)C(CC(=O)c2ccc(Cl)cc2)c2cn(-c3ccc(S(N)(=O)=O)cc3)nc2-c2ccc(OC)cc2)cc1 (centres undefined) has an inhibition in vivo at 320 µmol/kg [1] of 30.8% and an inhibition in vivo at 320 µmol/kg [4] of 22.5%.

In the case of COc1ccc(/N=C\c2cn(-c3ccc(Cl)cc3)nc2-c2ccc(C)cc2)cc1, the inhibition in vivo at 320 µmol/kg [1] was 62%, the Activity [3] was 16.67% and the inhibition in vivo at 320 µmol/kg [4] was 48.9%.

For Cc1ccc(-c2nn(-c3ccc(Cl)cc3)cc2C=O)cc1, the inhibition in vivo at 320 µmol/kg [1] was 49.9% and the inhibition in vivo at 320 µmol/kg [4] was 56%.

Work on COc1ccc(-c2[nH]c(-c3ccc(Cl)cc3)cc2-c2cn(-c3ccc(S(N)(=O)=O)cc3)nc2-c2ccc(C)cc2)cc1 yielded an inhibition in vivo at 320 µmol/kg [1] of 49.7%, an Activity [3] of 50% and an inhibition in vivo at 320 µmol/kg [4] of 34.2%.

Compound Cc1ccc(-c2nn(-c3ccc(S(N)(=O)=O)cc3)cc2/C=C\C(=O)c2ccc(Cl)cc2)cc1 has an inhibition in vivo at 320 µmol/kg [1] of 53.3% and an inhibition in vivo at 320 µmol/kg [4] of 47.6%.

Work on Cc1ccc(-c2nn(-c3ccc(S(N)(=O)=O)cc3)cc2-c2cc(-c3ccc(Cl)cc3)[nH]c2-c2ccc(F)cc2)cc1 yielded an inhibition in vivo at 80 µmol/kg [7] of 14%, a Selectivity ratio [5] of 0.87 and an inhibition in vivo at 320 µmol/kg [1] of 75.4%. For the same compound, the IC50 [8] was 0.21 mmol/kg, the LD50 at 24 h [6] was 3250 µmol/kg and the UI [2] was 15. The Activity [3] was 16.67%, the inhibition in vivo at 320 µmol/kg [4] was 66.7% and the inhibition in vivo at 160 µmol/kg [9] was 43.6%.

In the case of Cc1ccc(-c2nn(-c3ccc(Cl)cc3)cc2-c2cc(-c3ccc(Cl)cc3)[nH]c2-c2ccc(F)cc2)cc1, the inhibition in vivo at 320 µmol/kg [1] was 38.3%, the UI [2] was 13 and the Activity [3] was 33.33%. The inhibition in vivo at 320 µmol/kg [4] was 21%.

COc1ccc(-c2nn(-c3ccc(Cl)cc3)cc2C=O)cc1 showed an inhibition in vivo at 320 µmol/kg [1] of 63.1%, an Activity [3] of 33.33% and an inhibition in vivo at 320 µmol/kg [4] of 57.6%.

For COc1ccc(C(=O)C(CC(=O)c2ccc(Cl)cc2)c2cn(-c3ccc(S(N)(=O)=O)cc3)nc2-c2ccc(C)cc2)cc1 (centres undefined), the inhibition in vivo at 320 µmol/kg [1] was 53.8%, the Activity [3] was 50% and the inhibition in vivo at 320 µmol/kg [4] was 61.1%.

In the case of COc1ccc(/N=C\c2cn(-c3ccc(S(N)(=O)=O)cc3)nc2-c2ccc(OC)cc2)cc1, the inhibition in vivo at 320 µmol/kg [1] was 65.8%, the LD50 at 24 h [6] was 3250 µmol/kg and the UI [2] was 16.4. The Activity [3] was 33.33% and the inhibition in vivo at 320 µmol/kg [4] was 68.5%.
